According to patent US8901145B2, “Aminopyrimidine kinase inhibitors” (Jasco Pharmaceuticals, LLC, priority 2011, dated 2014):

Assays:
[1] = molecular target: CK1γ2(h) (Homo sapiens, UniProt P78368); test: Enzyme activity, ATP = Km, CK1γ2(h); type: biochemical; conditions: 300 nM of compound, ATP concentration = Km
[2] = test system: RPMI-8226; test: Cell proliferation inhibition (MTS), RPMI-8226; type: cell-based, human; conditions: RPMI 8226, 72 hours
Procedure: (§1) All cells were cultured in media supplemented with 10% FBS except for which are marked specially, in the temperature of 37° C., 5% CO2 and 95% humidity. All culture media were purchased from GIBCO (USA, IMDM Cat. 12200-036; RPMI Medium 1640 Cat. 31800-022; 2-mercaptoethanol Cat. 21985-023).
(§2) • 1. The cells were harvested respectively during the logarithmic growth period and counted with hemocytometer. The cell viability was over 98% by trypan blue exclusion. • 2. Cell concentrations were adjusted to 2.22×10^5 or 1.11×10^5 or 5.56×10^4 cells/mL with respective medium. • 3. 90 μL cell suspensions were added to 96-well plates (triplicates for each cell concentration), the final cell densities were 2×10^4 or 1×10^4 or 5×10^3 cells/well. The density of 5×10^3 cells/well was used for the first test. The appropriate cell density was determined and adjusted according to the results of the first test. • 4. The next day, test article or positive drugs were dissolved with DMSO as stock solution at the concentration of 20 mM. • 5. 10 μL drug solution was dispensed in each well (triplicate for each drug concentration). • 6. Plates were cultured for another 72 hours, then measured by means of MTS assay. • 7. MTS/PMS solution was prepared immediately prior to use. […] Absorbance at 490 nm was recorded using SpectraMAX Plus microplate spectrophotometer. […]

[3] = test system: KU812; test: Cell proliferation inhibition (MTS), KU812; type: cell-based, human; conditions: KU812, 72 h
Procedure: (§3) All cells were cultured in the media supplemented with 10% FBS in the temperature of 37° C., 5% CO2 and 95% humidity. All culture media were purchased from GIBCO.
(§4) • 1. Cells were harvested respectively during the logarithmic growth period and counted with hemocytometer. Cell viability was over 98% by trypan blue exclusion. • 2. Dilute cells with respective medium to achieve 1.11×10^5 cells/mL for LNCaP cells, 2.22×10^5 cells/mL for KU812 cells, 5.56×10^4 cells/mL for Panc-1 cells. • 3. Add 90 μL cell suspensions to 96-well plate, the final cell densities are 1×10^4 cells/well for LNCaP cells, 2×10^4 cells/well for KU812 cells, and […] cells/well for Panc-1 cells, respectively. • 4. The next day, dilute the test article or positive drugs with DMSO or PBS. • 5. Dispense 10 μL drug solution in each well (triplicate for each drug concentration). • 6. The plates were cultured for another 72 hours, then measured using MTS assay. • 7. Prepare MTS/PMS solution immediately prior to use, pipet 20 μL of the mixture into each well of the 96 well assay plate containing 100 μL culture medium. (The final reaction volume is 120 μL). • 8. Incubate the plate for 1-4 hours at 37° C. in a humidified, 5% CO2 atmosphere. • 9. Record the absorbance at 490 nm using Synergy2 Microplate Reader. Data Analysis:
(§5) The software of GraphPad Prism version 5 was used to calculate IC50. […]

[4] = test system: Panc-1; test: Cell proliferation inhibition (MTS), Panc-1; type: cell-based, human; conditions: Panc-1, 72 h
Procedure: as §3, §4, §5

[5] = molecular target: CK2(h) (Homo sapiens, UniProt P68400); test: Enzyme activity, ATP = Km, CK2(h); type: biochemical; conditions: 300 nM of compound, ATP concentration = Km
[6] = molecular target: Pim-1(h) (Homo sapiens, UniProt P11309); test: Enzyme activity, ATP = Km, Pim-1(h); type: biochemical; conditions: 300 nM of compound, ATP concentration = Km
[7] = molecular target: Pim-3(h) (Homo sapiens, UniProt Q86V86); test: Enzyme activity, ATP = Km, Pim-3(h); type: biochemical; conditions: 300 nM of compound, ATP concentration = Km
[8] = test system: NCI-H929; test: Cell proliferation inhibition (MTS), NCI-H929; type: cell-based, human; conditions: NCI-H929, 72 hours
Procedure: as §1, §2

[9] = molecular target: Pim-2(h) (Homo sapiens, UniProt Q9P1W9); test: Enzyme activity, ATP = Km, Pim-2(h); type: biochemical; conditions: 300 nM of compound, ATP concentration = Km
[10] = test system: CK1(y); test: Enzyme activity, ATP = Km, CK1(y); type: biochemical, yeast; conditions: 300 nM of compound, ATP concentration = Km

Chain of CK2(h) (P68400 whole entry): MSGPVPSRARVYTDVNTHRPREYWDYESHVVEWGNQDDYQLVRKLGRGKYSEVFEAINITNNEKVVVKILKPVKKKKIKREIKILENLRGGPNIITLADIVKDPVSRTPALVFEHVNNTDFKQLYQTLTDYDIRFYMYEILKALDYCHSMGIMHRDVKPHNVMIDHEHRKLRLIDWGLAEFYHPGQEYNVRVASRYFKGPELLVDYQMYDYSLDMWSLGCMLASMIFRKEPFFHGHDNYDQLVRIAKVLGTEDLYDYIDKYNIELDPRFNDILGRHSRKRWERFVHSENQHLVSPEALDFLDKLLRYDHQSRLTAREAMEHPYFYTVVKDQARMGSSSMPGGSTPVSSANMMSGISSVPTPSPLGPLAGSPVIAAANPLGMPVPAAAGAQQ
Chain of CK2(h) (P67870 whole entry partner): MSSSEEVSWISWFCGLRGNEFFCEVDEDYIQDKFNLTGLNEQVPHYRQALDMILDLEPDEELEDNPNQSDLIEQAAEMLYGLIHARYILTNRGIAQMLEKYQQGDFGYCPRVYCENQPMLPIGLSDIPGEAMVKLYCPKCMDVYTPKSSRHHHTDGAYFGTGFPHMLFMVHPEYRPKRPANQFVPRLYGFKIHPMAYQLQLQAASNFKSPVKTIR
Chain of Pim-2(h) (Q9P1W9 whole entry): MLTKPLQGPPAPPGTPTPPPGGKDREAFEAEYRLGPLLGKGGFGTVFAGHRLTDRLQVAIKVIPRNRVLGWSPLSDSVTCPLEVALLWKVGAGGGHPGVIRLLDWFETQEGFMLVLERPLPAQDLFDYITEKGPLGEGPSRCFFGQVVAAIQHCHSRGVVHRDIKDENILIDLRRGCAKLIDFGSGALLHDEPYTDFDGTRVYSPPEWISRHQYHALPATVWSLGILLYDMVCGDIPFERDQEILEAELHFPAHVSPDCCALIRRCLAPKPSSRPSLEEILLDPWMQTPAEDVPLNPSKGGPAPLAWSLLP
Chain of CK1γ2(h) (P78368 whole entry): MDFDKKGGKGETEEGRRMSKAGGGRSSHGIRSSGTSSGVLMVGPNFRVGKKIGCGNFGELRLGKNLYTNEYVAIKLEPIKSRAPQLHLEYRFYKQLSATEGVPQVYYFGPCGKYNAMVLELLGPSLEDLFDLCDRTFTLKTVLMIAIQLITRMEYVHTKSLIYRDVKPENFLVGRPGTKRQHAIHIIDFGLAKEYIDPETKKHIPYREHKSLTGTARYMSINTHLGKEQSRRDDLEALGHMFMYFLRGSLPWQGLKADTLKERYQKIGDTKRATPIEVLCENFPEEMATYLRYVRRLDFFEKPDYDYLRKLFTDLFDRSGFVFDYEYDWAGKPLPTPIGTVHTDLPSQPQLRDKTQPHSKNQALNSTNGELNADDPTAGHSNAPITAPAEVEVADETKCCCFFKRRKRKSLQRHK
Chain of Pim-1(h) (P11309 whole entry): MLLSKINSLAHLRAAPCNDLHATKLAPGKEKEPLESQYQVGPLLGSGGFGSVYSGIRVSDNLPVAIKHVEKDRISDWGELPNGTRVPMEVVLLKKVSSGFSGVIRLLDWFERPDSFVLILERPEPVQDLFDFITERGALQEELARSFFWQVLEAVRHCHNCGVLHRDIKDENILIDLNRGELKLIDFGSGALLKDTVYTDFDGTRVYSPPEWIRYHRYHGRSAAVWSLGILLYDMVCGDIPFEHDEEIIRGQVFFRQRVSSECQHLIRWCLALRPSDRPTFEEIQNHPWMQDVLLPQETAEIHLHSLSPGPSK

## NCC1CCN(c2cc(/C=C3\SC(=O)NC3=O)ncn2)CC1 [Compound 11268]
[1]
  Percent Activity of Enzyme CK1γ2(h): 95%
[2]
  IC50: > 30 µM
[3]
  IC50: > 30 µM
[4]
  IC50: > 30 µM
[5]
  Percent Activity of Enzyme CK2(h): 85%
[6]
  Percent Activity of Enzyme Pim-1(h): 115%
[7]
  Percent Activity of Enzyme Pim-3(h): 80%
[8]
  IC50: > 30 µM
[9]
  Percent Activity of Enzyme Pim-2(h): 108%
[10]
  Percent Activity of Enzyme CK1(y): 114%
